Data as given in patent US11986000B2, “Whey protein extracts and their use as sphingomyelin source” (SOCIETE DES PRODUITS NESTLE S.A., priority 2017, dated 2024).

Experiment: Determination of total SM in raw materials and finished product by HPLC-ELSD
Details: analysed versus theoretical SM in infant formula powders
Description: 1.2. Determination of Total SM in Raw Materials and Finished Product by HPLC-ELSD
Calibration standard stock solution was prepared by dissolving 140 mg of certified milk lecithin and 10 mg of PG (internal standard) in 100 mL of chloroform/methanol (9/1, v/v) solution. Further dilutions of this solution was performed in chloroform/methanol (9/1, v/v) to yield six standard levels, ranging from 0.012 to 0.249 g L−1 for SM and 0.005 to 0.100 g L^−1 for PG.
Sample extraction and chromatographic analysis, including chromatography columns and detector settings, were completed according to the procedure as described by Braun et al. (2010) with the following minor modifications. […] EZChrom software package (Agilent Technologies) was used to control the chromatograph and results were analysed using OpenLab software (Agilent Technologies).
SM was identified within the certified milk lecithin based on peak location in the elution sequence, retention time and characteristic peak shape, as described by Braun et al. (2010). […] A six-point calibration curve was prepared for both SM ([…], R^2=:=::0.996) and PG (0.025-0.507 g L^−1, R^2=:=::0.996) for quantification. […] Quantification of SM was as described by Braun et al. (2010) using the following equation: […]

sphingomyelin [SM]
Stability of SM during the manufacturing processes: stable against degradation
